Assay results published in ChEMBL document CHEMBL1938339, “Tripeptidic BACE1 inhibitors devised by in-silico conformational structure-based design” (Bioorg Med Chem Lett, 2012).

Target: Beta-secretase 1 (Homo sapiens) (UniProt P56817)
Test: Inhibition of human recombinant BACE1 at 2 uM by FRET assay

Chain of Beta-secretase 1 (Homo sapiens) (P56817 whole entry): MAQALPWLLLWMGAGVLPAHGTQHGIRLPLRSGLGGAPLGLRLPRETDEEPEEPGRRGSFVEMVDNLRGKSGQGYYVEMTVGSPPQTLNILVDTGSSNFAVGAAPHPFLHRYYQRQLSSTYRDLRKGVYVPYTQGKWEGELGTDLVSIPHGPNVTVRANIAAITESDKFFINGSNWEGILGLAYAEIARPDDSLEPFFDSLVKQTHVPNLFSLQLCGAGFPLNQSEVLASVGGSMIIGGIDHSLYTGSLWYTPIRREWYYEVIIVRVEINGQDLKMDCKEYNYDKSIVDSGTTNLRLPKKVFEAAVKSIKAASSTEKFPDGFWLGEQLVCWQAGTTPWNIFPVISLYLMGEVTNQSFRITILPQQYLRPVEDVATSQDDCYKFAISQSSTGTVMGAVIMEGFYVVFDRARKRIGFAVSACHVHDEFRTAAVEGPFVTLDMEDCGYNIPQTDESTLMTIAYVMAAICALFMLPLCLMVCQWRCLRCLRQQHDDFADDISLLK

Row | SMILES | inhibition [%]
1 | COc1cccc(CC(C)(C)NC(=O)[C@H](CC2CCCCC2)NC(=O)[C@@H](NC(=O)[C@@H](N)CNC(=O)c2cc(O)ccc2O)C(C)C)c1 | 49
2 | CC(C)C[C@H](NC(=O)[C@@H](NC(=O)[C@@H](N)CCC(=O)O)C(C)C)C(=O)NC(C)(C)Cc1ccccc1 | < 10
3 | CC(C)C[C@H](NC(=O)[C@@H](NC(=O)[C@@H](N)CNC(=O)c1nn[nH]n1)C(C)C)C(=O)NC(C)(C)Cc1ccccc1 | 70
4 | CC(C)C[C@H](NC(=O)[C@@H](NC(=O)[C@@H](N)CNC(=O)c1[nH]c(=O)[nH]c(=O)c1F)C(C)C)C(=O)NC(C)(C)Cc1ccc([N+](=O)[O-])cc1 | 27
5 | CC(C)C[C@H](NC(=O)[C@@H](NC(=O)[C@@H](N)CNC(=O)c1cc(O)ccc1O)C(C)C)C(=O)NC(C)(C)Cc1cc(F)cc(F)c1 | 59
6 | CC(C)C[C@H](NC(=O)[C@@H](NC(=O)[C@@H](N)CNC(=O)c1[nH]c(=O)[nH]c(=O)c1F)C(C)C)C(=O)NC(C)(C)Cc1ccccc1 | 90
7 | CC(C)C[C@H](NC(=O)[C@@H](NC(=O)[C@@H](N)CNC(=O)c1cc(O)ccc1O)C(C)C)C(=O)NC(C)(C)Cc1ccccc1 | 77
8 | CC(C)[C@H](NC(=O)[C@@H](N)CNC(=O)c1[nH]c(=O)[nH]c(=O)c1F)C(=O)N[C@@H](CC1CCCCC1)C(=O)NC(C)(C)CC1CCCCC1 | 88
9 | Cc1ccc(CC(C)(C)NC(=O)[C@H](CC2CCCCC2)NC(=O)[C@@H](NC(=O)[C@@H](N)CNC(=O)c2[nH]c(=O)[nH]c(=O)c2F)C(C)C)cc1 | 88
10 | CC(C)[C@H](NC(=O)[C@@H](N)CNC(=O)c1[nH]c(=O)[nH]c(=O)c1F)C(=O)N[C@@H](CC1CCCCC1)C(=O)NC(C)(C)Cc1ccc(Br)cc1 | 92
11 | CC(C)C[C@H](NC(=O)[C@@H](NC(=O)[C@@H](N)CNC(=O)c1[nH]c(=O)[nH]c(=O)c1F)C(C)C)C(=O)N1CCCCCCC1 | 85
12 | CC(C)C[C@H](NC(=O)[C@@H](NC(=O)[C@@H](N)CNC(=O)c1[nH]c(=O)[nH]c(=O)c1F)C(C)C)C(=O)NC(C)(C)Cc1ccc(I)cc1I | 91
13 | COc1cccc(CC(C)(C)NC(=O)[C@H](CC2CCCCC2)NC(=O)[C@@H](NC(=O)[C@@H](N)CNC(=O)c2[nH]c(=O)[nH]c(=O)c2F)C(C)C)c1 | 77
14 | CC(C)C[C@H](NC(=O)[C@@H](NC(=O)[C@@H](N)CNC(=O)c1[nH]c(=O)[nH]c(=O)c1F)C(C)C)C(=O)N1CCCCCC1 | 89
15 | CC(C)[C@H](NC(=O)[C@@H](N)CNC(=O)c1cc(O)ccc1O)C(=O)N[C@@H](CC1CCCCC1)C(=O)NC(C)(C)Cc1ccc(I)cc1I | 88
16 | COc1cccc(CC(C)(C)NC(=O)[C@H](CC(C)C)NC(=O)[C@@H](NC(=O)[C@@H](N)CNC(=O)c2[nH]c(=O)[nH]c(=O)c2F)C(C)C)c1 | 84
17 | CC(C)C[C@H](NC(=O)[C@@H](NC(=O)[C@@H](N)CNC(=O)c1[nH]c(=O)[nH]c(=O)c1F)C(C)C)C(=O)NC(C)(C)CC1CCCCC1 | 91
18 | COc1ccc(CC(C)(C)NC(=O)[C@H](CC2CCCCC2)NC(=O)[C@@H](NC(=O)[C@@H](N)CNC(=O)c2cc(O)ccc2O)C(C)C)cc1 | 45
19 | CC(C)[C@H](NC(=O)[C@@H](N)CCC(=O)O)C(=O)N[C@@H](CC1CCCCC1)C(=O)NC(C)(C)Cc1ccccc1 | 16
20 | COc1ccc(CC(C)(C)NC(=O)[C@H](CC(C)C)NC(=O)[C@@H](NC(=O)[C@@H](N)CNC(=O)c2cc(O)ccc2O)C(C)C)cc1 | 41

Second part, the molecule after the results:

Row | inhibition [%] | SMILES
21 | 83 | COc1ccc(CC(C)(C)NC(=O)[C@H](CC(C)C)NC(=O)[C@@H](NC(=O)[C@@H](N)CNC(=O)c2[nH]c(=O)[nH]c(=O)c2F)C(C)C)cc1
22 | 84 | Cc1ccccc1CC(C)(C)NC(=O)[C@H](CC1CCCCC1)NC(=O)[C@@H](NC(=O)[C@@H](N)CNC(=O)c1[nH]c(=O)[nH]c(=O)c1F)C(C)C
23 | 80 | CC(C)[C@H](NC(=O)[C@@H](N)CNC(=O)c1cc(O)ccc1O)C(=O)N[C@@H](CC1CCCCC1)C(=O)NC(C)(C)Cc1ccc([N+](=O)[O-])cc1
24 | 86 | CC(C)C[C@H](NC(=O)[C@@H](NC(=O)[C@@H](N)CNC(=O)c1[nH]c(=O)[nH]c(=O)c1F)C(C)C)C(=O)NC(C)(C)Cc1cc(F)cc(F)c1
25 | 81 | CC(C)C[C@H](NC(=O)[C@@H](NC(=O)[C@@H](N)CNC(=O)c1[nH]c(=O)[nH]c(=O)c1F)C(C)C)C(=O)N1CCCCCCCC1
26 | 92 | CC(C)[C@H](NC(=O)[C@@H](N)CNC(=O)c1[nH]c(=O)[nH]c(=O)c1F)C(=O)N[C@@H](CC1CCCCC1)C(=O)NC(C)(C)Cc1ccccc1
27 | 46 | COc1cccc(CC(C)(C)NC(=O)[C@H](CC(C)C)NC(=O)[C@@H](NC(=O)[C@@H](N)CNC(=O)c2cc(O)ccc2O)C(C)C)c1
28 | 88 | CC(C)C[C@H](NC(=O)[C@@H](NC(=O)[C@@H](N)CNC(=O)c1[nH]c(=O)[nH]c(=O)c1F)C(C)C)C(=O)N1CCCC1
29 | 45 | CC(C)C[C@H](NC(=O)[C@@H](NC(=O)[C@@H](N)CNC(=O)c1cc(O)ccc1O)C(C)C)C(=O)NC(C)(C)Cc1ccc([N+](=O)[O-])cc1
30 | 54 | Cc1ccccc1CC(C)(C)NC(=O)[C@H](CC1CCCCC1)NC(=O)[C@@H](NC(=O)[C@@H](N)CNC(=O)c1cc(O)ccc1O)C(C)C
31 | 91 | CC(C)C[C@H](NC(=O)[C@@H](NC(=O)[C@@H](N)CNC(=O)c1[nH]c(=O)[nH]c(=O)c1F)C(C)C)C(=O)N1CCCCC1
32 | 85 | COc1ccc(CC(C)(C)NC(=O)[C@H](CC2CCCCC2)NC(=O)[C@@H](NC(=O)[C@@H](N)CNC(=O)c2[nH]c(=O)[nH]c(=O)c2F)C(C)C)cc1
33 | 89 | CC(C)[C@H](NC(=O)[C@@H](N)CNC(=O)c1[nH]c(=O)[nH]c(=O)c1F)C(=O)N[C@@H](CC1CCCCC1)C(=O)NC(C)(C)Cc1ccc([N+](=O)[O-])cc1
34 | 91 | Cc1ccccc1CC(C)(C)NC(=O)[C@H](CC(C)C)NC(=O)[C@@H](NC(=O)[C@@H](N)CNC(=O)c1[nH]c(=O)[nH]c(=O)c1F)C(C)C
35 | 85 | CC(C)C[C@H](NC(=O)[C@@H](NC(=O)[C@@H](N)CNC(=O)c1[nH]c(=O)[nH]c(=O)c1F)C(C)C)C(=O)NC(C)(C)Cc1ccc(Br)cc1
36 | 76 | CC(C)[C@H](NC(=O)[C@@H](N)CNC(=O)c1nn[nH]n1)C(=O)N[C@@H](CC1CCCCC1)C(=O)NC(C)(C)Cc1ccccc1
37 | 91 | CC(C)[C@H](NC(=O)[C@@H](N)CNC(=O)c1[nH]c(=O)[nH]c(=O)c1F)C(=O)N[C@@H](CC1CCCCC1)C(=O)NC(C)(C)Cc1cc(F)cc(F)c1
38 | 78 | CC(C)C[C@H](NC(=O)[C@@H](NC(=O)[C@@H](N)CNC(=O)c1cc(O)ccc1O)C(C)C)C(=O)NC(C)(C)Cc1ccc(I)cc1I
39 | 81 | CC(C)[C@H](NC(=O)[C@@H](N)CNC(=O)c1cc(O)ccc1O)C(=O)N[C@@H](CC1CCCCC1)C(=O)NC(C)(C)Cc1ccc(Br)cc1
40 | 80 | CC(C)[C@H](NC(=O)[C@@H](N)CNC(=O)c1cc(O)ccc1O)C(=O)N[C@@H](CC1CCCCC1)C(=O)NC(C)(C)Cc1ccccc1
41 | 51 | Cc1ccc(CC(C)(C)NC(=O)[C@H](CC(C)C)NC(=O)[C@@H](NC(=O)[C@@H](N)CNC(=O)c2cc(O)ccc2O)C(C)C)cc1
42 | 86 | Cc1ccc(CC(C)(C)NC(=O)[C@H](CC(C)C)NC(=O)[C@@H](NC(=O)[C@@H](N)CNC(=O)c2[nH]c(=O)[nH]c(=O)c2F)C(C)C)cc1
43 | 96 | CC(C)[C@H](NC(=O)[C@@H](N)CNC(=O)c1[nH]c(=O)[nH]c(=O)c1F)C(=O)N[C@@H](CC1CCCCC1)C(=O)NC(C)(C)Cc1ccc(I)cc1I
